#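 Following 48 hours of exposure in 96-well plates, responses at five concentrations were used to interpolate endpoints linearly. Definition used: TGI = concentration required for complete inhibition of growth.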
# Experiments:
# Assay in all cases: inhibition of tumour cell growth, NCI panel, 48 h
# NCI-H23 lung = test system: NCI-H23 lung
# COLO 205 colon = test system: COLO 205 colon
# DU-145 prostate = test system: DU-145 prostate
# SNB-75 CNS = test system: SNB-75 CNS
# NCI-H460 lung = test system: NCI-H460 lung
# EKVX NSCLC = test system: EKVX NSCLC
# MDA-MB-435 = test system: MDA-MB-435
# SW-620 colon = test system: SW-620 colon
# SF-268 CNS = test system: SF-268 CNS
# SF-539 CNS = test system: SF-539 CNS
# SNB-19 CNS = test system: SNB-19 CNS
# T-47D breast = test system: T-47D breast
# HL-60(TB) leukemia = test system: HL-60(TB) leukemia
# MCF7 breast = test system: MCF7 breast
# NCI-H226 lung = test system: NCI-H226 lung
# HCC-2998 colon = test system: HCC-2998 colon
# HCT-116 colon = test system: HCT-116 colon
# IGROV1 ovarian = test system: IGROV1 ovarian
# A498 renal = test system: A498 renal
# TK-10 renal = test system: TK-10 renal
# SK-MEL-5 melanoma = test system: SK-MEL-5 melanoma
# M14 melanoma = test system: M14 melanoma
# ACHN renal = test system: ACHN renal
# PC-3 prostate = test system: PC-3 prostate
# HCT-15 colon = test system: HCT-15 colon
# CAKI-1 renal = test system: CAKI-1 renal
# HS 578T breast = test system: HS 578T breast
# SK-OV-3 ovarian = test system: SK-OV-3 ovarian
# K-562 leukemia = test system: K-562 leukemia
# SN12C renal = test system: SN12C renal
# U251 CNS = test system: U251 CNS
# CCRF-CEM leukemia = test system: CCRF-CEM leukemia
# LOX IMVI melanoma = test system: LOX IMVI melanoma
# OVCAR-5 ovarian = test system: OVCAR-5 ovarian
# BT-549 breast = test system: BT-549 breast
# MDA-N = test system: MDA-N
# OVCAR-8 ovarian = test system: OVCAR-8 ovarian
# RPMI-8226 leukemia = test system: RPMI-8226 leukemia
# MDA-MB-231 breast = test system: MDA-MB-231 breast
# UACC-257 melanoma = test system: UACC-257 melanoma
# UACC-62 melanoma = test system: UACC-62 melanoma
# HOP-62 NSCLC = test system: HOP-62 NSCLC
# MALME-3M melanoma = test system: MALME-3M melanoma
# HT29 colon = test system: HT29 colon
# UO-31 renal = test system: UO-31 renal
# NCI-H522 lung = test system: NCI-H522 lung
# SK-MEL-28 melanoma = test system: SK-MEL-28 melanoma
# SK-MEL-2 melanoma = test system: SK-MEL-2 melanoma
# SF-295 CNS = test system: SF-295 CNS
# MOLT-4 leukemia = test system: MOLT-4 leukemia
# OVCAR-3 ovarian = test system: OVCAR-3 ovarian
# KM12 colon = test system: KM12 colon
# A549 NSCLC = test system: A549 NSCLC
# 786-0 renal = test system: 786-0 renal
# OVCAR-4 ovarian = test system: OVCAR-4 ovarian
# RXF 393 renal = test system: RXF 393 renal
# HOP-92 NSCLC = test system: HOP-92 NSCLC
# NCI/ADR-RES ovarian = test system: NCI/ADR-RES ovarian
smiles,measurement,setting,value
COC(=O)c1c2c(cc3c1CC1(Cc4cc5c(cc4C1=O)CCC5)C3)CCC2 (stereo unspecified),TGI,NCI-H23 lung,> 100 µM
same,TGI,COLO 205 colon,> 100 µM
same,TGI,DU-145 prostate,> 100 µM
same,TGI,SNB-75 CNS,> 100 µM
same,TGI,NCI-H460 lung,> 100 µM
same,TGI,EKVX NSCLC,> 100 µM
same,TGI,MDA-MB-435,> 100 µM
same,TGI,SW-620 colon,> 100 µM
same,TGI,SF-268 CNS,> 100 µM
same,TGI,SF-539 CNS,> 100 µM
same,TGI,SNB-19 CNS,> 100 µM
same,TGI,T-47D breast,> 100 µM
same,TGI,HL-60(TB) leukemia,> 100 µM
same,TGI,MCF7 breast,> 100 µM
same,TGI,NCI-H226 lung,> 100 µM
same,TGI,HCC-2998 colon,> 100 µM
same,TGI,HCT-116 colon,> 100 µM
same,TGI,IGROV1 ovarian,> 100 µM
same,TGI,A498 renal,> 100 µM
same,TGI,TK-10 renal,> 100 µM
same,TGI,SK-MEL-5 melanoma,54.4 µM
same,TGI,M14 melanoma,> 100 µM
same,TGI,ACHN renal,> 100 µM
same,TGI,PC-3 prostate,> 100 µM
same,TGI,HCT-15 colon,> 100 µM
same,TGI,CAKI-1 renal,> 100 µM
same,TGI,HS 578T breast,> 100 µM
same,TGI,SK-OV-3 ovarian,93.8 µM
same,TGI,K-562 leukemia,> 100 µM
same,TGI,SN12C renal,> 100 µM
same,TGI,U251 CNS,> 100 µM
same,TGI,CCRF-CEM leukemia,> 100 µM
same,TGI,LOX IMVI melanoma,> 100 µM
same,TGI,OVCAR-5 ovarian,> 100 µM
same,TGI,BT-549 breast,> 100 µM
same,TGI,MDA-N,> 100 µM
same,TGI,OVCAR-8 ovarian,> 100 µM
same,TGI,RPMI-8226 leukemia,57.7 µM
same,TGI,MDA-MB-231 breast,> 100 µM
same,TGI,UACC-257 melanoma,> 100 µM
same,TGI,UACC-62 melanoma,> 100 µM
same,TGI,HOP-62 NSCLC,> 100 µM
same,TGI,MALME-3M melanoma,> 100 µM
same,TGI,HT29 colon,> 100 µM
same,TGI,UO-31 renal,> 100 µM
same,TGI,NCI-H522 lung,> 100 µM
same,TGI,SK-MEL-28 melanoma,> 100 µM
same,TGI,SK-MEL-2 melanoma,> 100 µM
same,TGI,SF-295 CNS,> 100 µM
same,TGI,MOLT-4 leukemia,> 100 µM
same,TGI,OVCAR-3 ovarian,> 100 µM
same,TGI,KM12 colon,> 100 µM
same,TGI,A549 NSCLC,> 100 µM
same,TGI,786-0 renal,> 100 µM
same,TGI,OVCAR-4 ovarian,> 100 µM
Cc1cc(C)nc(SCCc2cccc[n+]2C)n1,TGI,NCI-H23 lung,> 100 µM
same,TGI,COLO 205 colon,> 100 µM
same,TGI,DU-145 prostate,> 100 µM
same,TGI,SNB-75 CNS,> 100 µM
same,TGI,RXF 393 renal,> 100 µM
same,TGI,NCI-H460 lung,> 100 µM
same,TGI,EKVX NSCLC,> 100 µM
same,TGI,MDA-MB-435,> 100 µM
same,TGI,SW-620 colon,> 100 µM
same,TGI,SF-268 CNS,> 100 µM
same,TGI,SNB-19 CNS,> 100 µM
same,TGI,T-47D breast,> 100 µM
same,TGI,HL-60(TB) leukemia,> 100 µM
same,TGI,MCF7 breast,> 100 µM
same,TGI,NCI-H226 lung,> 100 µM
same,TGI,HCC-2998 colon,> 100 µM
same,TGI,HCT-116 colon,> 100 µM
same,TGI,IGROV1 ovarian,> 100 µM
same,TGI,A498 renal,> 100 µM
same,TGI,TK-10 renal,> 100 µM
same,TGI,SK-MEL-5 melanoma,> 100 µM
same,TGI,M14 melanoma,> 100 µM
same,TGI,ACHN renal,> 100 µM
same,TGI,PC-3 prostate,> 100 µM
same,TGI,HCT-15 colon,> 100 µM
same,TGI,CAKI-1 renal,> 100 µM
same,TGI,HS 578T breast,> 100 µM
same,TGI,SK-OV-3 ovarian,> 100 µM
same,TGI,K-562 leukemia,> 100 µM
same,TGI,SN12C renal,> 100 µM
same,TGI,U251 CNS,> 100 µM
same,TGI,CCRF-CEM leukemia,> 100 µM
same,TGI,LOX IMVI melanoma,> 100 µM
same,TGI,OVCAR-5 ovarian,> 100 µM
same,TGI,BT-549 breast,> 100 µM
same,TGI,MDA-N,> 100 µM
same,TGI,OVCAR-8 ovarian,> 100 µM
same,TGI,RPMI-8226 leukemia,> 100 µM
same,TGI,MDA-MB-231 breast,> 100 µM
same,TGI,UACC-257 melanoma,> 100 µM
same,TGI,UACC-62 melanoma,> 100 µM
same,TGI,HOP-62 NSCLC,> 100 µM
same,TGI,HOP-92 NSCLC,> 100 µM
same,TGI,MALME-3M melanoma,> 100 µM
same,TGI,HT29 colon,> 100 µM
same,TGI,UO-31 renal,> 100 µM
same,TGI,NCI-H522 lung,> 100 µM
same,TGI,SK-MEL-28 melanoma,> 100 µM
same,TGI,SF-295 CNS,> 100 µM
same,TGI,MOLT-4 leukemia,> 100 µM
same,TGI,NCI/ADR-RES ovarian,> 100 µM
same,TGI,OVCAR-3 ovarian,> 100 µM
same,TGI,KM12 colon,> 100 µM
same,TGI,A549 NSCLC,> 100 µM
same,TGI,786-0 renal,> 100 µM
same,TGI,OVCAR-4 ovarian,> 100 µM

# Reference: PubChem BioAssay (NCI)
